Test results from the NIST ThermoML archive (doi:10.1021/je300134c).

Assay: xn = mol fraction of the nth substance listed
Conditions: 101 kPa, Liquid; for speed of sound: Sing-around technique in a fixed-path interferometer; for mass density: Vibrating tube method

CCCC[n+]1ccn(CC)c1.O=S(=O)([O-])C(F)(F)F + O
Conditions	mass density [kg/m3]	speed of sound [m/s]
278.15 K, x1 = 0.04992	1120.13	1524
278.15 K, x1 = 0.1001	1171.15	1521.3
278.15 K, x1 = 0.1498	1199.88	1514.7
278.15 K, x1 = 0.1998	1218.01	1505.6
278.15 K, x1 = 0.3013	1239.57	1484.6
278.15 K, x1 = 0.4012	1251.73	1467.7
278.15 K, x1 = 0.496	1259.25	1455.4
278.15 K, x1 = 0.6017	1265.19	1444.9
278.15 K, x1 = 0.7007	1269.28	1436.2
278.15 K, x1 = 0.8551	1274.04	1428
278.15 K, x1 = 0.9006	1275.29	1424.8
278.15 K, x1 = 1	1278.02	1420.6
288.15 K, x1 = 0.04992	1114.86	1527.1
288.15 K, x1 = 0.1001	1164.38	1513.5
288.15 K, x1 = 0.1498	1192.37	1500.2
288.15 K, x1 = 0.1998	1210.13	1487.1
288.15 K, x1 = 0.3013	1231.45	1462.7
288.15 K, x1 = 0.4012	1243.63	1444.7
288.15 K, x1 = 0.496	1251.19	1432
288.15 K, x1 = 0.6017	1257.22	1421
288.15 K, x1 = 0.7007	1261.36	1412.4
288.15 K, x1 = 0.8551	1266.2	1403.7
288.15 K, x1 = 0.9006	1267.39	1400.7
288.15 K, x1 = 1	1269.97	1396.3
298.15 K, x1 = 0.04992	1109.08	1526.5
298.15 K, x1 = 0.1001	1157.27	1503
298.15 K, x1 = 0.1498	1184.63	1484.1
298.15 K, x1 = 0.1998	1202.11	1467.7
298.15 K, x1 = 0.3013	1223.27	1440.8
298.15 K, x1 = 0.4012	1235.48	1422
298.15 K, x1 = 0.496	1243.13	1409
298.15 K, x1 = 0.6017	1249.23	1397.9
298.15 K, x1 = 0.7007	1253.44	1389.3
298.15 K, x1 = 0.8551	1258.37	1380.5
298.15 K, x1 = 0.9006	1259.57	1377.5
298.15 K, x1 = 1	1262.21	1373.1
308.15 K, x1 = 0.04992	1102.81	1522.5
308.15 K, x1 = 0.1001	1149.85	1490.2
308.15 K, x1 = 0.1498	1176.7	1466.4
308.15 K, x1 = 0.1998	1193.95	1447.6
308.15 K, x1 = 0.3013	1215.04	1418.7
308.15 K, x1 = 0.4012	1227.32	1399.3
308.15 K, x1 = 0.496	1235.04	1386.3
308.15 K, x1 = 0.6017	1241.24	1375.1
308.15 K, x1 = 0.7007	1245.51	1366.7
308.15 K, x1 = 0.8551	1250.54	1357.8
308.15 K, x1 = 0.9006	1251.76	1355
308.15 K, x1 = 1	1254.44	1350.6
318.15 K, x1 = 0.04992	1096.1	1515.2
318.15 K, x1 = 0.1001	1142.14	1475.1
318.15 K, x1 = 0.1498	1168.57	1447.5
318.15 K, x1 = 0.1998	1185.67	1426.7
318.15 K, x1 = 0.3013	1206.74	1396.3
318.15 K, x1 = 0.4012	1219.13	1376.7
318.15 K, x1 = 0.496	1226.96	1363.7
318.15 K, x1 = 0.6017	1233.26	1352.5
318.15 K, x1 = 0.7007	1237.61	1344.3
318.15 K, x1 = 0.8551	1242.74	1335.7
318.15 K, x1 = 0.9006	1243.97	1333
318.15 K, x1 = 1	1246.71	1328.6
328.15 K, x1 = 0.04992	1088.96	1504.9
328.15 K, x1 = 0.1001	1134.15	1458.2
328.15 K, x1 = 0.1498	1160.26	1427.4
328.15 K, x1 = 0.1998	1177.26	1405
328.15 K, x1 = 0.3013	1198.39	1373.8
328.15 K, x1 = 0.4012	1210.91	1354.1
328.15 K, x1 = 0.496	1218.87	1341.2
328.15 K, x1 = 0.6017	1225.3	1330.3
328.15 K, x1 = 0.7007	1229.73	1322.3
328.15 K, x1 = 0.8551	1234.98	1314
328.15 K, x1 = 0.9006	1236.23	1311.3
328.15 K, x1 = 1	1239.01	1307.1
338.15 K, x1 = 0.04992	1081.43	1492
338.15 K, x1 = 0.1001	1125.92	1439.7
338.15 K, x1 = 0.1498	1151.76	1406.4
338.15 K, x1 = 0.1998	1168.74	1382.8
338.15 K, x1 = 0.3013	1189.99	1351.2
338.15 K, x1 = 0.4012	1202.68	1331.6
338.15 K, x1 = 0.496	1210.79	1319
338.15 K, x1 = 0.6017	1217.37	1308.4
338.15 K, x1 = 0.7007	1221.89	1300.7
338.15 K, x1 = 0.8551	1227.27	1292.7
338.15 K, x1 = 0.9006	1228.53	1290.2
338.15 K, x1 = 1	1231.35	1286.1
